Values quoted from earlier work, collected in patent publication US8307894B2, “Composition and method for inhibiting the deleterious effects of sulfate reducing bacteria” (priority 2009, dated 2012).
Where two headings read alike, the source gives them in different places.

Legend:
[1] = tested on: insects and aquatic life including fish
[2] = not given; remark: listed apart in the source
[3] = tested on: sulfate reducing bacteria; settings: government study (12/04)

SMILES | lifetime in the environment (breaks down when exposed to sunlight) | persistence in water (in water) | toxicity [1] | Solubility ([2]; in ethanol) | Solubility ([2]; in ether and acetone) | toxicity (humans and other mammals) | inhibition of sulfate reducing bacteria [3]
C=C(C)[C@H]1Cc2c(ccc3c2O[C@@H]2COc4cc(OC)c(OC)cc4[C@@H]2C3=O)O1 [rotenone] | six | six | extremely toxic | slightly soluble | Soluble | mildly toxic | 
[O]=[Mo](=[O])([O-])[O-] [molybdate] |  |  |  |  |  |  | possible candidates as inhibitors
